Among the data in ChEMBL document CHEMBL5550120, “SuFEx-based chemical diversification for the systematic discovery of CRBN molecular glues” (Bioorg Med Chem, 2024) are EC50 and DC50 values, retold here.

The test system of one experiment is MOLT-4. In words: Antiproliferative activity against wild type human MOLT-4 cells assessed as reduction in cell viability measured after 3 days by ATP-dependent luminescence assay. It is filed as functional, cell-based. Particulars: MOLT-4, 72 h.
Turning to `Cc1ccc(NC(=O)NCc2ccc3c(c2)CN(C2CCC(=O)NC2=O)C3=O)cc1Cl` (stereo unspecified), the EC50 is under 1 nM.

The test system of the next experiment is MV4-11. In words: Antiproliferative activity against wild type human MV4-11 cells assessed as reduction in cell viability measured after 3 days by ATP-dependent luminescence assay. It is filed as functional, cell-based. Particulars: MV4-11, 72 h.
Consider `Cc1ccc(NC(=O)NCc2ccc3c(c2)CN(C2CCC(=O)NC2=O)C3=O)cc1Cl` (stereo unspecified), for which the EC50 is under 1 nM.

In a further experiment the test system is BE(2)-C. The experiment in a line: Antiproliferative activity against wild type human BE2C cells assessed as reduction in cell viability measured after 3 days by ATP-dependent luminescence assay. It is filed as functional, cell-based. Particulars: 72 h.
Take `Cc1ccc(NC(=O)NCc2ccc3c(c2)CN(C2CCC(=O)NC2=O)C3=O)cc1Cl` (stereo unspecified): the EC50 is under 5 nM.

The target in the next experiment is T1, Protein cereblon/Eukaryotic peptide chain release factor GTP-binding subunit ERF3A (Homo sapiens, UniProt Q96SW2+P15170). In words: Molecular glue activity at CRBN/HiBiT-tagged GSPT1 in human MOLT-4 cells assessed as induction of GSPT1 degradation measured after 3 hrs by immunoblot analysis.
T1 sequence (Q96SW2 whole entry): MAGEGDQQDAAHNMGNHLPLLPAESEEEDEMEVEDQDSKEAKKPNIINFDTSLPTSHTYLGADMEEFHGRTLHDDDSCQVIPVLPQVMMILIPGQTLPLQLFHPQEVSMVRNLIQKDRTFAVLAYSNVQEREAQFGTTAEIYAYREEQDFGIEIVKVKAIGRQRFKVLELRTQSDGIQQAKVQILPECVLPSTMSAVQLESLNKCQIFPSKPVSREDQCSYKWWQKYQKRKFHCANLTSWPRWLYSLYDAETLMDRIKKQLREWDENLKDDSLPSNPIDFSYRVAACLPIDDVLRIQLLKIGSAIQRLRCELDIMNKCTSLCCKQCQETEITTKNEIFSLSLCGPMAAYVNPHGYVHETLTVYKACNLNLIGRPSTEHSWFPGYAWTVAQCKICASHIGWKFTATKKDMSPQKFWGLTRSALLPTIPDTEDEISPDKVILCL
T1 sequence (P15170 whole entry): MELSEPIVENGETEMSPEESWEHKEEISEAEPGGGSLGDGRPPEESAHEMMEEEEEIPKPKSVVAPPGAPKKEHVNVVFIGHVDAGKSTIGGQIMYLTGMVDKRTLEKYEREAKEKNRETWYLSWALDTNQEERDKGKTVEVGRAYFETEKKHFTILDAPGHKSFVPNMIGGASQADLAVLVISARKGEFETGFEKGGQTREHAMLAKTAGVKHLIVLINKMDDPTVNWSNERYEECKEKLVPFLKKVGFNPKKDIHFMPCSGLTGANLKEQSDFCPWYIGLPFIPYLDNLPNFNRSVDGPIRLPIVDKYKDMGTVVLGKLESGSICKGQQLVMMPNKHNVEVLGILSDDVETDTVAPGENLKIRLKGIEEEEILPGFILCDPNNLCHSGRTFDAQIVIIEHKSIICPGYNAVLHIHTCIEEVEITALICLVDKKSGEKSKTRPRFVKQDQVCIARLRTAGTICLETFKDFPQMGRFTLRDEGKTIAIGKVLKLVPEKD
Conditions: not given
It is filed as cell-based.
Regarding `Cc1ccc(NC(=O)NCc2ccc3c(c2)CN(C2CCC(=O)NC2=O)C3=O)cc1Cl` (stereo unspecified), the DC50 is under 1 nM.

In the next experiment the target is T1, Protein cereblon/Eukaryotic peptide chain release factor GTP-binding subunit ERF3A. The experiment in a line: Molecular glue activity at CRBN/HiBiT-tagged GSPT1 in wild type human MV4-11 cells assessed as induction of GSPT1 degradation measured after 3 hrs by immunoblot analysis. It is filed as cell-based.
Conditions: not given
For the compound `Cc1ccc(NC(=O)NCc2ccc3c(c2)CN(C2CCC(=O)NC2=O)C3=O)cc1Cl` (stereo unspecified), the DC50 is under 1 nM.

The next experiment has the same target. The experiment in a line: Molecular glue activity at CRBN/HiBiT-tagged GSPT1 in wild type human BE2C cells assessed as induction of GSPT1 degradation measured after 3 hrs by immunoblot analysis. It is filed as cell-based.
Conditions: not given
As to `Cc1ccc(NC(=O)NCc2ccc3c(c2)CN(C2CCC(=O)NC2=O)C3=O)cc1Cl` (stereo unspecified), the DC50 was under 1 nM.
